Laboratory results reported in US10202408B2, “Prodrugs and methods of use thereof” (Health Innovation Ventures B.V., priority 2012, dated 2019).

Legend:
[1] = system: HCT116 cells engineered to over-express human aldo-ketoreductase 1C3 (AKR1C3); assay: Low cell density IC50 (SRB) assay, HCT116 wild type versus AKR1C3 over-expressing cells; type: cell-based; details: 4 h exposure
Procedure: (§1) Compounds were subjected to testing, including low-cell density cytotoxicity assay. Cells (500 cells/well) were seeded in 96-well plates and exposed to prodrug for 4 h, washed, then left to grow for a further 5 days. The SRB assay was employed to determine IC50 values (concentration of prodrug required to inhibit proliferation by 50%). Parental HCT116 cells (HCT116 is a cell line derived from human colon cancer) and cells expressing the example nitroreductase gene nfsA from Escherichia coli were evaluated head-to-head. Parental H1299 cells (H1299 is a cell line derived from lung cancer) and cells expressing the example nitroreductase gene nfsA from Escherichia coli were evaluated head-to-head. Parental HCT116 cells and cells expressing human AKR1C3 were evaluated head-to-head. Parental H1299 cells and cells expressing human AKR1C3 were evaluated head-to-head. In a variation of these assays test compounds were assessed for their ability to give hypoxia-selective cell killing. Here wild type HCT116, H460 (H460 is a cell line derived from lung cancer), H1299 and SiHa cells (SiHa is a cell line derived from cervical cancer) were used in addition to HCT116 cells engineered to over express cytochrome P450 reductase (HCT116 POR), a human one-electron nitroreductase. Low-cell density cytotoxicity assays were performed as above under oxic conditions and compared to experiments where cells were shown 4 h of anoxia during the prodrug exposure period, before being washed free of prodrug and then left to grow for a further 5 days under oxic conditions, as above.

[2] = system: HCT116 MCLs over-expressing AKR1C3; assay: Multicellular layer (MCL) clonogenic assay, HCT116 wild type versus AKR1C3 over-expressing MCLs; type: cell-based, human
Procedure: (§2) In parallel, a three dimensional high-cell density multi-cellular layer (MCL) clonogenic assay was performed. 1×10^6 cells of either 100% HCT-116^WT or containing 97% WT with a minor 3% HCT-116^NTR cell population were seeded into a collagen-coated Teflon microporous membrane and left to grow for 3 days. MCLs were then exposed to prodrug for 5 h. After treatment, MCLs were enzyme dissociated, diluted in fresh medium and plated to determine clonogenic survival. To discriminate clonogenic activator (NTR+) from target (NTR−) colonies, cells were plated in non-selective medium (total cells) and medium containing 1 μM puromycin (activator cells). Colonies were grown for 10 days before staining. Colonies containing >50 cells were counted. A variation of this assay was also used to assess for evidence of AKR1C3-dependent cytotoxicity. Here either 100% HCT-116W^T or 100% HCT-116^AKR1C3 cells were seeded to provide MCLs that were then exposed to prodrug.

[3] = system: HCT116 cells engineered to over-express E coli NfsA; assay: Low cell density IC50 (SRB) assay, HCT116 wild type versus E coli NfsA over-expressing cells; type: cell-based, human
Procedure: as §1

[4] = system: H1299 cells engineered to over-express E coli NfsA; assay: Low cell density IC50 (SRB) assay, H1299 wild type versus E coli NfsA over-expressing cells; type: cell-based, human
Procedure: as §1

[5] = system: HCT116 MCLs with 3% E coli NfsA-expressing cells; assay: MCL clonogenic bystander assay, HCT116 MCLs seeded with 3% E coli NfsA-expressing cells; type: cell-based, human; details: 97% wild type HCT116, 3% E coli NfsA-expressing cells
Procedure: as §2

[6] = system: bacterial nitroreductases from the NfsA and NfsB families; assay: GFP SOS assay with nitroreductase over-expression library; type: cell-based, E. coli strain SOS-R4; details: 55 candidate nitroreductase library, 6 h challenge
Excerpt: The method employed the over-expression of a candidate nitroreductase gene from plasmid pUCX in an SOS reporter strain, as first described in Prosser et al., 2010, Biochem Pharmacol 79, 678-687. In order to enhance the sensitivity of the SOS reporter system, an sfiA::GFP reporter construct was integrated into a CDF-based plasmid (which contains a compatible origin of replication with pUCX) to give the pANODuet reporter plasmid for GFP screening. In addition, nfsA, nfsB, azoR, and nemA genes were deleted to minimise background metabolism, and the tolC gene deleted to minimise efflux of test compounds; this strain was designated SOS-R3. Further improvements were obtained by deleting the mdaB, ycaK, and yieF genes to minimise background metabolism, and by introducing transcriptional terminators to the pANODUET reporter plasmid. This final reporter strain was designated SOS-R4.
Stored glycerols of the 55-membered nitroreductase library in SOS-R4 were thawed and used to inoculate overnight cultures (Lysogeny Broth (LB) amended with 100 μg ml^−1 Ampicillin, 50 μg ml^−1 Spectinomycin, 0.4% glucose) that were incubated at 30° C., 200 rpm for 16 h. The next morning the GFP-SOS assay was commenced by inoculation of 195 μl fresh assay media (LB+100 μg ml^−1 Ampicillin, 50 μg ml^−1 Spectinomycin, 0.2% glucose, 50 μM IPTG) with 15 μl of overnight culture in individual wells of a 96-well plate. Plates were incubated at 30° C., 200 rpm for 2.5 h (pre-challenge period), following which cultures were diluted 1:2 by splitting 50:50 into fresh assay media (+DMSO to 0.5% final concentration) and fresh challenge media (assay media+drug to desired concentration, DMSO to 0.5% final concentration) to final volumes of 80 μl apiece in duplicate on a 384-well plate. Plates were incubated at 30° C., 200 rpm for 6 h (challenge period). GFP expression was determined at excitation 488 nm/emission 509 nm. Turbidity was determined by OD600 and fluorescence data from any replicates not found to be within 15% of the median culture turbidity were discarded.

[7] = system: HCT116, H460, H1299 and SiHa wild type cancer cell lines; assay: Oxic versus anoxic low cell density IC50 assay, wild type cancer cell lines; type: cell-based, human; details: 4 h anoxia during prodrug exposure versus oxic
Procedure: as §1

[8] = system: bacterial nitroreductases from the NfsA and NfsB families; assay: GFP SOS assay with nitroreductase over-expression library; type: cell-based, E. coli strain SOS-R4; details: single and poly mutated variants of NfsA_Ec, single-mutated variant of NfsA_Bs
[9] = system: H1299 cells engineered to over-express human aldo-ketoreductase 1C3 (AKR1C3); assay: Low cell density IC50 (SRB) assay, H1299 wild type versus AKR1C3 over-expressing cells; type: cell-based; details: 4 h exposure
Procedure: as §1

[10] = system: 15% E coli NfsA-expressing H1299 xenografts; assay: Tumour growth delay, 15% E coli NfsA-expressing H1299 xenografts; type: in vivo, NIH-III mice; details: for E coli NfsA mediated anti-tumour efficacy (mean tumour volume): 500 umol/kg twice daily (BID), total 1000 umol/kg; for tumour growth delay: mixed HCT116 and H1299 xenografts, 15% E coli NfsA cells, single (or BID) intraperitoneal dose
Procedure: Animals weighed 18-25 g at the time of tumour inoculation. Tumours were grown subcutaneously on the right flank of mice by inoculating cells grown in tissue culture (1×10^7 cells in 100 uL serum free α-MEM). Tumour sizes were monitored three times weekly using electronic callipers and treatments were initiated once tumour diameter reached ≥7 mm.
Tumour bearing mice were randomised into the appropriate treatment groups and tumour size and body weight recorded. Test compounds were formulated on the day of the experiment and kept in foil-wrapped tubes out of direct fluorescent light. If recruitment of animals occurred over multiple days, the drug stocks were aliquoted into tubes and frozen once at […] until required. Mice were treated with a single (or BID) dose of prodrug by intraperitoneal injection and thereafter tumour size and body weight was monitored every second day. Tumour volume was calculated as π (l×w×w)/6, where l is the major axis and w is the perpendicular minor axis. Animals were culled when they had reached the appropriate survival endpoint or when body weight loss exceeded 20% of the pre-treatment value.

[11] = system: wild type SiHa tumour xenografts; assay: Excision assay with and without radiation, wild type SiHa tumour xenografts; type: in vivo, NIH-III nude mice
Procedure: Tumours were grown subcutaneously in the flank of NIH-III mice by inoculating cells grown in tissue culture. Tumours were monitored using electronic calipers. When tumours reached treatment size, mice were randomized to treatment groups (five to seven per group). Compounds were given as single (or BID) intraperitoneal doses alone or 5 min after whole body irradiation (^60Co source). Eighteen hours after treatment, tumours were excised, weighed, minced, dissociated enzymatically, and plated to determine clonogenicity. Clonogens/gram of tissue were calculated relative to controls and effects of treatment were tested for significance (ANOVA with Dunnett's).

| Structure (SMILES) | AKR1C3-mediated cytotoxicity (IC50 wild type versus AKR1C3) [1] | AKR1C3-dependent clonogenic cell kill in MCLs [2] | E coli NfsA-mediated cytotoxicity (IC50 wild type versus NfsA) [3] | E coli NfsA-mediated cytotoxicity (IC50 wild type versus NfsA) [4] | bystander cell killing in MCLs [5] | metabolism by bacterial nitroreductases (SOS response) [6] | hypoxia-dependent cytotoxicity [7] | activity with mutated nitroreductase variants [8] | AKR1C3-mediated cytotoxicity (IC50 wild type versus AKR1C3) [9] | E coli NfsA mediated anti-tumour efficacy (mean tumour volume) [10] | tumour growth delay [10] | cell killing in combination with radiation versus radiation alone ([11]; HCT116 POR and wild type SiHa xenografts, 10 or 15Gy, single (or BID) intraperitoneal dose) | hypoxic cell kill in vivo (log cell kill) ([11]; with or without 10Gy radiation, 22 at 422, 300 and 11 at 1330, 23 at 1000 umol/kg) |
| --- | --- | --- | --- | --- | --- | --- | --- | --- | --- | --- | --- | --- | --- |
| CCS(=O)(=O)c1cc([N+](=O)[O-])c(C(=O)N(C)CCO)cc1N(CCBr)CCBr [compound 18, 5-(bis(2-bromoethyl)amino)-4-(ethylsulfonyl)-N-(2-hydroxyethyl)-N-methyl-2-nitrobenzamide] | less susceptible to AKR1C3-mediated cytotoxicity than PR-104A | do not cause AKR1C3-dependant cytotoxicity | produce E coli NfsA-mediated cytotoxicity | produce E coli NfsA-mediated cytotoxicity | display evidence of metabolism by the 3% E coli NfsA-expressing cells with bystander cell killing of the 97% non-expressing neighbour cells | substrates for multiple wild type and mutant bacterial nitroreductases from the NfsA and NfsB families | increased cytotoxicity in cells under hypoxia | demonstrated | – | – | – | – | – |
| CCN1CCN(C(=O)c2cc(N(CCBr)CCBr)c(S(C)(=O)=O)cc2[N+](=O)[O-])CC1 [compound 23, (5-(bis(2-bromoethyl)amino)-4-(methylsulfonyl)-2-nitrophenyl)(4-ethylpiperazin-1-yl)methanone] | less susceptible to AKR1C3-mediated cytotoxicity than PR-104A | do not cause AKR1C3-dependant cytotoxicity | produce E coli NfsA-mediated cytotoxicity | produce E coli NfsA-mediated cytotoxicity | display evidence of metabolism by the 3% E coli NfsA-expressing cells with bystander cell killing of the 97% non-expressing neighbour cells | substrates for multiple wild type and mutant bacterial nitroreductases from the NfsA and NfsB families | – | demonstrated | less susceptible to AKR1C3-mediated cytotoxicity than PR-104A | display significant E coli NfsA mediated anti-tumour efficacy | profound tumour growth delay | increased cell killing above what could be achieved with radiation alone | significant hypoxic cell kill in vivo |
| CCN1CCN(C(=O)c2cc(N(CCBr)CCBr)c(S(=O)(=O)CC)cc2[N+](=O)[O-])CC1 [compound 26, (5-(bis(2-bromoethyl)amino)-4-(ethylsulfonyl)-2-nitrophenyl)(4-ethylpiperazin-1-yl)methanone] | less susceptible to AKR1C3-mediated cytotoxicity than PR-104A | do not cause AKR1C3-dependant cytotoxicity | produce E coli NfsA-mediated cytotoxicity | produce E coli NfsA-mediated cytotoxicity | display evidence of metabolism by the 3% E coli NfsA-expressing cells with bystander cell killing of the 97% non-expressing neighbour cells | substrates for multiple wild type and mutant bacterial nitroreductases from the NfsA and NfsB families | – | demonstrated | less susceptible to AKR1C3-mediated cytotoxicity than PR-104A | display significant E coli NfsA mediated anti-tumour efficacy | profound tumour growth delay | – | – |
| CCS(=O)(=O)c1cc([N+](=O)[O-])c(C(=O)N2CCN(C(C)C)CC2)cc1N(CCBr)CCBr [compound 27, (5-(bis(2-bromoethyl)amino)-4-(ethylsulfonyl)-2-nitrophenyl)(4-isopropylpiperazin-1-yl)methanone] | less susceptible to AKR1C3-mediated cytotoxicity than PR-104A | do not cause AKR1C3-dependant cytotoxicity | produce E coli NfsA-mediated cytotoxicity | produce E coli NfsA-mediated cytotoxicity | display evidence of metabolism by the 3% E coli NfsA-expressing cells with bystander cell killing of the 97% non-expressing neighbour cells | substrates for multiple wild type and mutant bacterial nitroreductases from the NfsA and NfsB families | – | demonstrated | less susceptible to AKR1C3-mediated cytotoxicity than PR-104A | – | – | – | – |
| CS(=O)(=O)c1cc([N+](=O)[O-])c(C(=O)NCCO)cc1N(CCBr)CCBr [compound 301, 5-(bis(2-bromoethyl)amino)-N-(2-hydroxyethyl)-4-(methylsulfonyl)-2-nitrobenzamide] | – | – | – | – | – | – | increased cytotoxicity in cells under hypoxia | – | – | – | – | – | – |
